These are literature values, as cited in patent publication US20180273582A1, “SMALL MOLECULE AFFINITY MEMBRANE PURIFICATION SYSTEMS AND USES THEREOF” (UNIVERSITY OF NOTRE DAME, priority 2015, published 2018).

This data set addresses nucleotide binding site (NBS) of antibody. The note with it: antibody NBS region; from reference [43]; read-out: Kd (binding affinity to the conserved NBS region).

SMILES strings stand for the structures.

For `O=C(O)CCCc1c[nH]c2ccccc12` [IBA, indole-3-butyric acid], the Kd – broadly, the constant that tells how readily two partners part at equilibrium – was 1 to 8 µM.
